The values below come from patent US10471028B2, “Small molecule efflux pump inhibitors” (UNIVERSITY OF ROCHESTER, priority 2014, dated 2019).

SMILES strings stand for the structures. Like-named read-outs stand apart in the source and are kept apart here.

Series [1] deals with A. baumannii strain 98-37-09. Kind of series: MEC determination: potentiation of minocycline toward serum grown A. baumannii. It is filed as cell-based, Acinetobacter baumannii. The following applies: for Log-reduction Colony Forming Units (ml^−1): 1×MEC of compound plus minocycline in serum, versus minocycline alone, plating; for MEC: lowest concentration inhibiting growth in 100% human serum with 0.5 μg ml^−1 minocycline, 48 hr. As to the method:
The TimTec ActiProbe-25K diversity-set and Natural Product compound libraries (29,900 compounds total; TimTec, Newark, Del.) were initially screened for putative efflux pump inhibitors by identifying compounds that potentiated the antimicrobial property of a sub-inhibitory concentration of minocycline toward A. baumannii grown in human serum. To do so, A. baumannii strain 98-37-09 was grown for 16 hours in LB medium at 37° C. on a rotary shaker at 225 rpm. Approximately 1×10^5 CFU were then transferred to individual wells of a 96-well round-bottom plate (Corning Costar, Tewksbury, Mass.) containing 100 μL of human serum supplemented with of minocycline (0.5 μg mL^−1; 0.5× minimum inhibitory concentration in serum) and individual members of the Timtec ActiProbe or Natural product library (50 μM). Plates were then incubated at 37° C. for 48 hours. Growth was measured as a function of turbidity. Putative efflux pump inhibitors were identified as compounds that inhibited A. baumannii growth in human serum containing minocycline and were subsequently retested in triplicate, as indicated above. Untreated A. baumannii grown in serum supplemented with minocycline+/−PAβN served as positive and negative controls, respectively. […] Repeat testing in which well constituents were serial diluted and plated on LB agar plates validated that 85 compounds did indeed limit A. baumannii growth in serum supplemented with minocycline, reducing the number of viable colony forming units between 2-6 log cfu in comparison to minocycline alone treated cells.
The MEC was defined as the lowest concentration of test compound required to inhibit the growth of A. baumannii in serum in the presence of 0.5 μg ml^−1 minocycline. Plating confirmed that addition of 1×MEC of each compound elicited ≥1.9-log reduction in A. baumannii cells grown in serum supplemented with minocycline alone (see Table 1).

The test system of series [2] is A. baumannii strain 98-37-09. Kind of series: Cellular accumulation of minocycline (HPLC, triple-quadrupole MS). Conditions: for Minocylcine Per Cell (femtomoles cell^−1): human serum with 0.5 μg mL^−1 minocycline plus test compound (0.5×MEC, 1×MEC), 48 hours. It is filed as cell-based, Acinetobacter baumannii. As to the method:
High pressure liquid chromatography and triple-quadrupole mass spectrometry were used to measure the A. baumannii intracellular levels of minocycline during growth in human serum in the absence and presence of each putative efflux pump inhibitor. […] Cultures were incubated for 48 hours with shaking, at which point an aliquot was removed, serially diluted, and plated to determine the number of viable CFU per mixture. The remainder of the cells were pelleted by centrifugation at 900×g at 4° C., washed twice in PBS, mechanically lysed with a FastPrep cell disrupter (MP Biomedicals, Santa Ana, Calif.) for 20 seconds at 5 m s^−1 and the cellular debris was pelleted via centrifugation at 900×g and 4° C. The amount of minocycline present within the supernatant of ruptured cells was measured. Briefly, doxycycline (0.5 μg mL^−1) was first added to each supernatant to serve as an internal control to account for sample-to-sample preparation variability. The supernatant was then combined with acetonitrile (ACN) at a 1:10 ratio and centrifuged at 16,000×g, at 4° C., to collect minocycline and doxycycline. […] residual liquid was evaporated in a speed vacuum for 2 hours at 8,000×g. To quantify the amount of antibiotics retained, sample materials were suspended in 50% acetonitrile, filtered through a 0.2 μm low protein binding hydrophilic membrane (Millipore, Billerica, Mass.) then separated on Shimadzu high performance liquid chromatography instrument (Fisher Scientific) using a BetaBasic C18 reverse phase column (Thermo Scientific). Separation was carried out with two mobile phase solutions consisting of solution (A) water with 0.1% formic acid and solution (B) 100% ACN. The gradient profile of the chromatography runs was as follows: from 0 to 0.1 min 8% solution B, ramp step wise (37% to 60% solution B) from 0.1 to 6.5 min then holding for one minute before ramping down from 60% to 10% from 7.5 to 8 min. This was followed a hold at 10% solution B for one minute. […] The column was equilibrated in 8% solution B at 40° C. and the flow rate was set to 0.2 mL min^−1. Mass spectrometry analysis of fractions was carried out using a Thermo TSQ Quantum Ultra triple quadrupole mass spectrometer (Fisher Scientific). Data were analyzed using Xcalibur software (Thermo Scientific); the following parameters were used to detect minocycline and the internal control doxycycline: 458.208 m/z→282.971 m/z (collision energy=43, tube lens=119) for minocycline and 445.144 m/z→266.900 m/z (collision energy=39, tube lens=127) for doxycycline. Analysis of the raw data was conducted by using the area under the curve calculations with the Genesis algorithm to determine the concentration in each sample. The difference between the peak intensity and the y intercept of pre-established minocycline and doxycycline standard curves was divided by the slope of the standard curve to quantify the amount of minocycline within each sample. The total concentration of minocycline within each cell was calculated by normalizing to the number of cells within each corresponding culture.

For a further series, the system named is human HepG2 cells. Kind of series: MTT cell viability (cytotoxicity) assay. As to the method:
To distinguish putatively non-toxic from human cytotoxic compounds, conventional 3-(4,5-dimethylthiazol-2yl)-2,5-diphenyltetrazolium bromide (MTT) cell viability assays (American Type Culture Collection, Manassas, Va.) were performed for each compound of interest at 1× and 4× their MEC. Briefly, human HepG2 cells were grown to approximately 1×10^6 cells per well in Dulbecco's Modified Eagle Media supplemented with 10% fetal bovine serum (Invitrogen, Carlsbad, Calif.) then treated with 1× or 4× the MEC of the indicated […] Cell viability was measured following the addition of the tetrazolium salt (MTT) as per the manufacturer's recommendations; cells challenged with 50 ug ml^−1 Mitomycin C (Sigma Aldrich) and mock-treated cells served as positive and negative controls, respectively.

With `c1ccc(CN2CCN(Cc3ccccc3)C2c2cccs2)cc1` [ST007852], in series [1], the “Log-reduction Colony Forming Units (ml^−1)” value was determined as 4.21 log and the MEC came out at 4 µg/mL. Besides, the “Minocylcine Per Cell (femtomoles cell^−1)” value (“Minocylcine Per Cell” for short) in series [2] was determined as 5.9E−05 femtomoles cell^−1. In addition, the “% Viability” value in the series with human HepG2 cells came out at 65.77%.
For `CC1CCN(Cc2cc(Cl)c3cccnc3c2O)CC1` [ST007924], in series [1], the “Log-reduction Colony Forming Units (ml^−1)” value is listed as 2.42 log and the MEC turned out to be 4 µg/mL. Besides, the “Minocylcine Per Cell” value in series [2] came to 5.12E−05 femtomoles cell^−1. Also, the “% Viability” value in the series with human HepG2 cells was 67.45%.
`CCOc1ccc(/C=N/c2ccc(S(N)(=O)=O)cc2)cc1` [ST009694]: in series [1], the “Log-reduction Colony Forming Units (ml^−1)” value was determined as 6.24 log and the MEC was 4 µg/mL. For the same compound, the “Minocylcine Per Cell” value in series [2] is 6.8E−07 femtomoles cell^−1. In addition, the “% Viability” value in the series on human HepG2 cells is listed as 74.6%.
For `NS(=O)(=O)c1ccc(/N=C/c2ccc(F)cc2)cc1` [ST009698] the same measures were 6.45 log, 64 µg/mL, 1.52E−05 femtomoles cell^−1 and 73.56%.
As to `NS(=O)(=O)c1ccc(/N=C/c2ccc(Br)cc2)cc1` [ST009699], in series [1], the “Log-reduction Colony Forming Units (ml^−1)” value was found to be 6.84 log and the MEC is 2 µg/mL. Further, in series [2], the “Minocylcine Per Cell” value worked out at 1.15E−04 femtomoles cell^−1. Further, the “% Viability” value in the series on human HepG2 cells was 70.45%.
Consider `CCOc1ccccc1C(=O)Nc1sc2c(c1C(=O)OC(C)C)CCCC2` [ST009896], for which, in series [1], the “Log-reduction Colony Forming Units (ml^−1)” value was 2.45 log and the MEC is 2 µg/mL. The “Minocylcine Per Cell” value in series [2] came to 3.99E−05 femtomoles cell^−1. Moreover, the “% Viability” value in the series with human HepG2 cells was found to be 73.54%.
For `O=C(c1ccc([N+](=O)[O-])cc1Cl)N1CCCc2ccccc21` [ST011123] the same measures were 2.83 log, 32 µg/mL, 1.19E−05 femtomoles cell^−1 and 67.89%.
For `O=[N+]([O-])c1cc2c(cc1/C=N/c1ccc(S(=O)(=O)Nc3nccs3)cc1)OCO2` [ST012902], in that order: 3.71 log, 2 µg/mL, 1.1E−05 femtomoles cell^−1 and 55.1%.
As to `O=[N+]([O-])c1cccc(/C=N/c2ccc(S(=O)(=O)Nc3nccs3)cc2)c1` [ST012961], in series [1], the “Log-reduction Colony Forming Units (ml^−1)” value is 6.23 log and the MEC was 32 µg/mL. Further, the “Minocylcine Per Cell” value in series [2] was 1.13E−04 femtomoles cell^−1. Moreover, the “% Viability” value with human HepG2 cells came to 59.32%.
In the case of `COc1ccc(/C=N/c2ccc(S(N)(=O)=O)cc2)c(OC)c1` [ST016442], in series [1], the “Log-reduction Colony Forming Units (ml^−1)” value amounted to 3.88 log and the MEC worked out at 2 µg/mL. In series [2], the “Minocylcine Per Cell” value worked out at 1.96E−04 femtomoles cell^−1. Besides, the “% Viability” value in the series with human HepG2 cells is 53.43%.
With `COc1ccc(OC)c(/C=N/c2ccc(S(N)(=O)=O)cc2)c1` [ST016443], in series [1], the “Log-reduction Colony Forming Units (ml^−1)” value was 2.00 log and the MEC stood at 2 µg/mL. In addition, in series [2], the “Minocylcine Per Cell” value is 4.4E−04 femtomoles cell^−1. For the same compound, in the series with human HepG2 cells, the “% Viability” value was determined as 57.49%.
For `CCc1ccc(/C=N/c2ccc(S(N)(=O)=O)cc2)cc1` [ST016444], in that order: 4.86 log, 16 µg/mL, 2.02E−05 femtomoles cell^−1 and 53.92%.
Consider `COc1ccc(O)c(/C=N/N=C/c2cc(OC)ccc2O)c1` [ST020959], for which, in series [1], the “Log-reduction Colony Forming Units (ml^−1)” value came to 6.90 log and the MEC was determined as 2 µg/mL. For the same compound, the “Minocylcine Per Cell” value in series [2] was 1.27E−04 femtomoles cell^−1. Besides, the “% Viability” value with human HepG2 cells (human, 48 h, 4 ×MEC) is 51.04%.
For `Cc1nnc(SCC2=C(C(=O)[O-])N3C(=O)[C@@H](NC(=O)Cn4cnnn4)[C@H]3SC2)s1.[Na+]` [ST024775], in series [1], the “Log-reduction Colony Forming Units (ml^−1)” value stood at 4.84 log and the MEC was determined as 16 µg/mL. Further, in series [2], the “Minocylcine Per Cell” value is 1.72E−05 femtomoles cell^−1. For the same compound, the “% Viability” value in the series with human HepG2 cells (HepG2 cellular survival at 4×MEC) was 41.62%.
For the compound `O=C(c1ccc(Cl)cc1Cl)n1cc([N+](=O)[O-])cn1` [ST033231], in series [1], the “Log-reduction Colony Forming Units (ml^−1)” value worked out at 1.91 log and the MEC is 32 µg/mL. In addition, the “Minocylcine Per Cell” value in series [2] is listed as 3.42E−06 femtomoles cell^−1. Further, in the series with human HepG2 cells, the “% Viability” value was 70.87%.
As to `COc1cc(/C=N/NC(=O)c2sc3ccccc3c2Cl)cc(OC)c1OC` [ST033346], in series [1], the “Log-reduction Colony Forming Units (ml^−1)” value is listed as 2.00 log and the MEC is 2 µg/mL. In series [2], the “Minocylcine Per Cell” value was determined as 3.615E−07 femtomoles cell^−1. Also, the “% Viability” value with human HepG2 cells is reported as 74.67%.
`Nc1nnc(SCC(=O)N2CCCC2)s1` [ST059421]: in series [1], the “Log-reduction Colony Forming Units (ml^−1)” value was determined as 6.31 log and the MEC came out at 4 µg/mL. Besides, the “Minocylcine Per Cell” value in series [2] amounted to 1.27E−07 femtomoles cell^−1.
As for `CCN(CC)S(=O)(=O)c1ccc(NC(=O)C2CC(=O)N(c3ccc(OC)cc3)C2)cc1` (stereo not drawn) [ST059822], in series [1], the “Log-reduction Colony Forming Units (ml^−1)” value turned out to be 6.23 log and the MEC is 4 µg/mL. For the same compound, in series [2], the “Minocylcine Per Cell” value was determined as 1.36E−07 femtomoles cell^−1.
As to `CCCCOc1ccc(C(=O)NCCC2=CCCCC2)cc1` [ST060056], in series [1], the “Log-reduction Colony Forming Units (ml^−1)” value was 5.38 log and the MEC was 4 µg/mL. Besides, the “Minocylcine Per Cell” value in series [2] came out at 4.22E−08 femtomoles cell^−1.
For `COc1ccc(-c2c3c([nH]c(=O)c2C#N)CCCCC3)cc1` [ST060355], in that order: 6.94 log, 32 µg/mL and 1.23E−08 femtomoles cell^−1.
In the case of `CN(C)c1ccc(O)c2c1C[C@H]1C[C@H]3[C@H](N(C)C)C(O)=C(C(N)=O)C(=O)[C@@]3(O)C(O)=C1C2=O` [minocycline, reference compound], the cellular minocycline concentration in series [2] (growth in serum (efflux active conditions), minocycline without efflux inhibitor) is on record as 1.58×10^−10 femtomoles per bacterial cell. This compound also gave a HepG2 survival with human HepG2 cells (minocycline tested alone at 2 μg ml^−1) of 77.9%.
